Results: patent publication US6004982A, “4-piperidinyl) H-2-benzopyran derivatives useful as antipsychotic agents” (Hoechst Marion Roussel, Inc., priority 1998, dated 1999)
Counter-ions that a name gives are not always drawn. Like-named read-outs stand apart in the source and are kept apart here.

Tests used:
[1] = tested on: apomorphine-induced climbing in CD-1 male mice; experiment: Climbing mouse assay (CMA), antagonism of apomorphine-induced climbing; assay type: in vivo; details: ip, Table I, compounds of the invention, i.p. 30 min before apomorphine 1.5 mg/kg s.c.
Protocol: CLIMBING MOUSE ASSAY (CMA)
This test may be used as to identify compounds useful in treating psychosis. Costall, B. et al, Eur. J. Pharm. 50: 39-50 (1978); Protais, P., et al., Psychopharmacology 50:1-6 (1976). […] This effect of apomorphine is antagonized by the D2 receptor antagonist.
CD-1 male mice (20-30 grams) are assigned to groups of 8 and individually placed in wire mesh stick cages and allowed one hour for adaptation to new environment. Apomorphine is injected at 1.5 mg/kg subcutaneously which is a dose which causes climbing in all subjects for thirty minutes. Test compounds are administered intraperitoneally thirty minutes prior to the apomorphine administration at a dose of 20 mg/kg.
For evaluation of climbing, three readings are taken at ten, twenty and thirty minutes after apomorphine administration according to the following scale:
4 paws on bottom (no climbing) 0
2 paws on the wall (rearing) 1
4 paws on the wall (full climb) 2
The climbing scores are individually totaled (maximal score: 6 per mouse over three readings) and total score of the control (vehicle intraperitoneally (ip) and apomorphine subcutaneous) is set to 100%. ED50 values with 95% confidence limits calculated by a linear regression analysis of some of the compounds of the present invention as well as a standard antipsychotic agent (clozapine) are presented in Table 1.

[2] = molecular target: T1, human dopamine D2L receptor (Human D2Long Receptors) (Homo sapiens, UniProt P14416); experiment: Human dopamine D2L receptor binding assay ([3H]N-methyl spiroperidol displacement)
T1 construct: expressed in transfected cells
Protocol: A single high expressing clonal cell line was isolated and membranes from this cell line were used for receptor binding assays. […] The incubation buffer contained: 50 mM Tris, 120 mM NaCl; 5 mM Kcl; 2 mM CaCl2; 1 mM MgCl2; pH 7.7). […] Incubations were performed at 37° C. in a shaking water bath for 30 min, terminated by rapid filtration through Whatman GF/B filters (presoaked in 0.3% polyethyleneimine), and counted in a liquid scintillation counter. Non-specific binding was defined as that remaining in the presence of 3 μM eticlopride. […] The percent inhibition at each drug concentration was the average of duplicate determinations. […] Cheng-Prisoff determination (Ki's) are performed using Prism software.

[3] = Table 2, [3H]N-methyl spiroperidol 0.4 nM, CHO membranes, 37° C., 30 min, pH 7.7, read-out: Ki

T1 sequence (P14416 whole entry): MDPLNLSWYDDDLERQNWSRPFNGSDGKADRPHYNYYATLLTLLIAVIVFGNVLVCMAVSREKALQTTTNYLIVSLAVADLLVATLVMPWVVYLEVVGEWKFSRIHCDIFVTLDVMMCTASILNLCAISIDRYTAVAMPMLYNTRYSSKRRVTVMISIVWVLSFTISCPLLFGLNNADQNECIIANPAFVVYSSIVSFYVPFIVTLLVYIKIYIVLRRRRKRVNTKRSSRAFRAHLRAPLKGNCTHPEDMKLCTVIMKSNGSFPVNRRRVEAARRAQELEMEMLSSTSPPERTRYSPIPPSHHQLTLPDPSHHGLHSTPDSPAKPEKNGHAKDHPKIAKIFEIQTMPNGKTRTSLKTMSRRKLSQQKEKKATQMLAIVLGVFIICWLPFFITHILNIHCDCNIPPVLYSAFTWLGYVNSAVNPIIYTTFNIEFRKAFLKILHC

Row | SMILES | Ki [2, 3] [nM] | ED50 [1] [mg/kg] | Ki [2] [nM]
1 | NC[C@@H]1O[C@H](C2CCN(CCc3ccccc3)CC2)Cc2c1ccc(O)c2O (relative stereo) [Example 4D, cis-1-(Aminomethyl)-3,4-dihydro-3-[1-(2-phenylethyl)-4-piperidinyl]-1H-2-benzopyran-5,6-diol Dihydrobromide Sesquihydrate] | 1090 | 8.1 | 
2 | NC[C@@H]1O[C@H](C2CCN(CCc3ccc(Cl)cc3)CC2)Cc2c1ccc(O)c2O (relative stereo) [Example 14, cis-1-(Aminomethyl)-3-[1-[2-(4-chlorophenyl)ethyl]-3,4-dihydro-4-piperidinyl]-1H-2-benzopyran-5,6-diol dihydrochloride] | 505 |  | 
3 | CNC[C@@H]1O[C@H](C2CCN(CCc3ccc(Cl)cc3)CC2)Cc2c1ccc(O)c2O (relative stereo) [Example 15, cis-3-[1-[2-(4-Chlorophenyl)ethyl]-4-piperidinyl]-3,4-dihydro-1-(N-methylaminomethyl)-1H-2-benzopyran-5,6-diol dihydrochloride hemihydrate] | 413 |  | 
4 | O=CNC[C@@H]1O[C@H](C2CCN(CCc3cccs3)CC2)Cc2c1ccc1c2OC2(CCCCC2)O1 (relative stereo) [Example 24, cis-N-[5,6-(cyclohexylidinedioxy)-3,4-dihydro-3-[1(2-(thiophen-2-yl)ethyl)-4-piperidinyl]-1H-2-benzofuran-1-ylmethyl]formamide] |  |  | 506
5 | NC[C@@H]1O[C@H](C2CCN(CCCC(c3ccc(F)cc3)c3ccc(F)cc3)CC2)Cc2c1ccc(O)c2O (relative stereo) [Example 29, cis-1-(Aminomethyl)3-[1-[4,4-bis-(4-fluorophenyl)butyl]-4-piperidinyl]-1H-2-benzopyran-5,6-diol Dihydrochloride Dihydrate] | 91.8 |  | 
6 | COc1cc(C(C)=O)ccc1OCCCN1CCC([C@@H]2Cc3c(ccc4c3OC3(CCCCC3)O4)[C@H](CNC=O)O2)CC1 (relative stereo) [Example 30, cis-N-[3-[1-[3-(4-acetyl-2-methoxyphenoxy)propyl]-4-piperidinyl]-5,6-(cyclohexylidenedioxy)-3,4-dihydro-1H-2-benzopyran-1-ylmethyl]formamide oxalate Trihydrate] |  |  | 857
7 | NC[C@@H]1O[C@H](C2CCNCC2)Cc2c1ccc(O)c2O (relative stereo) [Example 33, cis-1-(Aminomethyl)-3,4-dihydro-3-(4-piperidinyl)-1H-2-benzopyran-5,6-diolDihydrochloride 0.3 Hydrate] | 3900 |  | 
8 | NC[C@@H]1O[C@H](C2CCN(CCCC(c3ccc(F)cc3)c3ccc(F)cc3)CC2)Cc2c1ccc1c2OC2(CCCCC2)O1 (relative stereo) [Example 39, cis-1-Aminomethyl-5,6-(cyclohexylidenedioxy)-3,4-dihydro-3-[1-[4,4-bis(4-fluorophenyl)butyl]-4-piperidinyl]-1H-2-benzopyran Dioxalate 2.4 Hydrate] | 153 |  | 

Continued, in another order:

Row | Ki [2, 3] [nM] | SMILES | ED50 [1] [mg/kg] | Ki [2] [nM]
9 | 1200 | COc1ccc(CCN2CCC([C@@H]3Cc4c(ccc(O)c4O)[C@H](CN)O3)CC2)cc1 (relative stereo) [Example 11, cis-1-(Aminomethyl)-3,4-dihydro-3-[1-[2-(4-methoxyphenyl)ethyl]-4-piperidinyl]-1H-2-benzopyran-5,6-diol Dihydrochloride] |  | 
10 | 500 | NC[C@@H]1O[C@H](C2CCN(CCOc3ccccc3)CC2)Cc2c1ccc(O)c2O (relative stereo) [Example 23, cis-1-(Aminomethyl)-3,4-dihydro-3-[1(2-phenoxyethyl)-4-piperidinyl]-1H-2-benzopyran-5,6-diol dihydrochloride 0.4 hydrate] |  | 
11 | 1100 | COc1cc(C(C)=O)ccc1OCCCN1CCC([C@@H]2Cc3c(ccc(O)c3O)[C@H](CN)O2)CC1 (relative stereo) [Example 31, cis-1-(3-[3-[4-[1-(Aminomethyl)-3,4-dihydro-5,6-dihydroxy-1H-2-benzopyran-3-yl]-1-piperidinyl]propoxy]-3-methoxyphenyl)ethanone Dihydrochloride Dihydrate] |  | 
12 | 432 | NC[C@@H]1O[C@H](C2CCN(CCCn3c(=O)[nH]c4ccccc43)CC2)Cc2c1ccc(O)c2O (relative stereo) [Example 34, cis-1-[3-[4-(1-Aminomethyl-3,4-dihydro-5,6-dihydroxy-1H-2-benzopyran-3-yl)-1-piperidinyl]propyl]-1,3-dihydrobenzimidazol-2-one Dihydrochloride 1.33 Hydrate] |  | 
